Assay results taken from paper PMC9852173, “[^111In]In-CP04 as a novel cholecystokinin-2 receptor ligand with theranostic potential in patients with progressive or metastatic medullary thyroid cancer: final results of a GRAN-T-MTC Phase I clinical trial” (European Journal of Nuclear Medicine and Molecular Imaging, 2022).

Key:
[1] = in vivo
Procedure: On the WBS planar imaging at 1, 4, 24, and 48 h (including standard activity) and quantitative SPECT/CT imaging at 4 and 24 h, the regions of interest (ROI) were drawn over the kidneys and over the lesions when visible. The counts in the ROIs were quantified to activity by cross-calibration with the activity determined in the corresponding volumes of interest (VOIs) drawn on the quantitative SPECT/CT image at 24 h. Time-activity curves were determined by fitting exponential curves through the uptake data. Time integrated activity coefficients (TIAC) were calculated for ^111In and ^177Lu by integration of the TIACs multiplied with their physical decaty functions. The absorbed dose per unit activity in each organ was determined by multiplication with the ^111In and ^177Lu S-values according to the MIRD formalism. […] The effect on the kidney absorbed dose after co-administration of the nephroprotective agent Gelofusine was evaluated. All dosimetry calculations were performed with the Hermes-OLINDA v2.1 hybrid 2D dosimetry software.

MTC [2] = details: meta-analysis; cited from earlier work
Description: It is well accepted that the molecular imaging modalities outperform conventional imaging (US, CT, and MRI in the present study) in the setting of recurrent disease, in particular PET/CT imaging with [^18F]F-DOPA [19–21].

MTC [3] = assay: [18F]FDG PET/CT restaging prior to enrolment; type: in vivo, human; details: CEA 80 to 2087 ng/mL
Description: Sixteen patients with histologically proven and advanced MTC were enrolled in the study based on the specific inclusion and exclusion criteria. [^18F]FDG PET/CT, ceCT, or MRI imaging (initiated at Ct concentrations above 150 pg/mL or clinical suspicion of disease at a specific site) was positive in 12 patients; in four, short calcitonin doubling time (CtDT) with negative conventional imaging (CT of the neck/thorax, abdomen; [^18F]FDG PET/CT) was present.
It is well accepted that the molecular imaging modalities outperform conventional imaging (US, CT, and MRI in the present study) in the setting of recurrent disease, in particular PET/CT imaging with [^18F]F-DOPA [19–21]. […] With patient-based detection rate of over 80%, [^111In]In-CP04 slightly outperformed conventional and molecular imaging modalities (detection rate of 75%) in the present study. […] However, the patient population in our study was highly preselected and small, which likely affected the results; moreover, the reported detection rate in the mentioned meta-analysis was likely affected by the relatively low Ct concentrations (above 150 pg/mL in only 73% of patients). […]

[4] = in vivo; remark: listed apart in the source
Procedure: The duration of [^111In]In-CP04 administration with the low and high mass amount was 5 min and 30 min, respectively. During the injection of the IMP, a dynamic scan of the kidneys and stomach was performed for 30 min (anterior and posterior acquisition). The imaging protocol included a mandatory whole-body scan (WBS) at 1 h, 4 h, 24 h, and 48 h p.i. (table shift speed 12 cm/min). A quantitative SPECT/CT scan of the abdomen was performed at 24 h p.i. as well as an additional non-quantitative SPECT/CT scan of the area where pathological lesions were detected during WBS, if the scan duration was tolerated by the patient. Gelofusine (B. Braun, Melsungen, Germany) was administered as an infusion of 1 mL/kg body weight over 10 min followed by a 3-h infusion of 0.02 mL/kg/min after the injection of the IMPD. Physiological parameters (heart rate, blood pressure, oxygen saturation) were repeatedly measured during and after the [^111In]In-CP04 infusion as per study protocol.
During the [^111In]In-CP04 administration blood samples for dosimetry and pharmacokinetic purposes were taken at the set time intervals according to the study protocol: biodistribution and dosimetry data were acquired based on serial planar and SPECT/CT images, and blood and urine collection at regular time intervals. Urine samples were collected up to 24 h after the tracer injection to determine the bladder wall absorbed dose. On the WBS planar imaging at 1, 4, 24, and 48 h (including standard activity) and quantitative SPECT/CT imaging at 4 and 24 h, the regions of interest (ROI) were drawn over the kidneys and over the lesions when visible. The counts in the ROIs were quantified to activity by cross-calibration with the activity determined in the corresponding volumes of interest (VOIs) drawn on the quantitative SPECT/CT image at 24 h. Time-activity curves were determined by fitting exponential curves through the uptake data. Time integrated activity coefficients (TIAC) were calculated for ^111In and ^177Lu by integration of the TIACs multiplied with their physical decaty functions. The absorbed dose per unit activity in each organ was determined by multiplication with the ^111In and ^177Lu S-values according to the MIRD formalism. The blood time-activity curve was used to estimate the absorbed dose to the bone marrow. The activity concentration in the bone marrow was considered to be equal to the blood activity concentration. The activity and volumes of the urine samples were used to determine the urinary clearance rate, and with the dynamic bladder model, the TIAC in the bladder and the absorbed dose to the bladder wall were determined. The effect on the kidney absorbed dose after co-administration of the nephroprotective agent Gelofusine was evaluated. […]

[5] = parameters: species or system human; details: in vivo
Procedure: The primary objective of the trial was the evaluation of the safety of the administration of [^111In]In-CP04 at low mass amount of 10 μg CP04 and at high mass amount of 50 μg CP04 radiolabelled with 200±10% MBq of ^111In. Therefore, the definition of the type, frequency, severity, timing, and relation to the studied radiopharmaceutical administration of Adverse Events assessed by CTCAE v4.0 was used as primary endpoint to define the safety and tolerability of [^111In]In-CP04.
Detailed physical examinations with vital sign assessment, 12-lead ECG, and laboratory testing were performed to investigate the safety of intravenous administration of [^111In]In-CP04. The overall safety profile of the tested CCK-2/gastrin receptor ligand as characterized by timing, type, frequency, severity of adverse events (AE), and laboratory abnormalities was based on Common Terminology Criteria for Adverse Events (CTCAE) version 4.0. Since this was a Phase I clinical trial, the project was assumed as having a high-risk potential for the patient, and therefore, special care was taken with the monitoring of the study. In total, eight control visits were carried out over 4 months of the follow-up with physical examination, laboratory testing, and ECG. Additionally, Ct and proCt concentrations were measured after each [^111In]In-CP04 injection at predefined time points (0, 2, 5, 10, 20 min).
(table shift speed 12 cm/min).

For CSCC[C@H](NC(=O)[C@H](Cc1c[nH]c2ccccc12)NC(=O)CNC(=O)[C@H](Cc1ccc(O)cc1)NC(=O)[C@H](C)NC(=O)[C@@H](CCC(=O)O)NC(=O)[C@@H](CCC(=O)O)NC(=O)[C@@H](CCC(=O)O)NC(=O)[C@@H](CCC(=O)O)NC(=O)[C@@H](CCC(=O)O)NC(=O)[C@@H](CCC(=O)O)NC(=O)CN1CCN(CC(=O)O)CCN(CC(=O)O)CCN(CC(=O)O)CC1)C(=O)N[C@@H](CC(=O)O)C(=O)N[C@@H](Cc1ccccc1)C(N)=O [CP04, DOTA-(DGlu)6-Ala-Tyr-Gly-Trp-Met-Asp-Phe-NH2], the “projected 177Lu absorbed dose to the kidneys” value [1] was 0.12 Gy/GBq.

For N[C@@H](Cc1cc(O)c(O)cc1[18F])C(=O)O [[^18F]F-DOPA], the “pooled patient-based detection rate” value (MTC [2]) is given as 66%.

In the case of OC[C@H]1OC(O)[C@H]([18F])[C@@H](O)[C@@H]1O (stereo partly drawn) [[^18F]FDG], the “PET/CT positivity in the present series” value (MTC [3]) is reported as “only positive in three patients”.

For CSCC[C@H](NC(=O)[C@H](Cc1c[nH]c2ccccc12)NC(=O)CNC(=O)[C@H](Cc1ccc(O)cc1)NC(=O)[C@H](C)NC(=O)[C@@H](CCC(=O)O)NC(=O)[C@@H](CCC(=O)O)NC(=O)[C@@H](CCC(=O)O)NC(=O)[C@@H](CCC(=O)O)NC(=O)[C@@H](CCC(=O)O)NC(=O)[C@@H](CCC(=O)O)NC(=O)CN1CCN(CC(=O)O)CCN(CC(=O)O)CCN(CC(=O)O)CC1)C(=O)N[C@@H](CC(=O)O)C(=O)N[C@@H](Cc1ccccc1)C(N)=O [[^111In]In-CP04, [^111In]In-DOTA-(DGlu)6-Ala-Tyr-Gly-Trp-Met-Asp-Phe-NH2, metal not drawn], the kidney absorbed dose [4] was 0.044±0.019 mSv/MBq, the “organs with highest dose” value [4] was “highest dose to urinary bladder, followed by the kidneys and stomach wall” and the “radiation dose for 200 MBq” value [4] was “about 7 mSv”. For the same compound, the “retention of activity in intestines, stomach and kidneys” value [4] was < 1 % of IA, the ECG recordings [5] was “No significant changes” and the “laboratory test results during control visits” value [5] was “did not change significantly”. For the same compound, the “performance status (Karnofsky index)” value [5] was “did not change”, the “transient tachycardia, duration” value [5] was “less than 5 minutes” and the “transient tachycardia, heart rate” value [5] was “up to 128 beats/min”.
